Assay results: article PMC9186362, “Design and biological evaluation of substituted 5,7-dihydro-6H-indolo[2,3-c]quinolin-6-one as novel selective Haspin inhibitors” (Journal of Enzyme Inhibition and Medicinal Chemistry, 2022)

Assays:
Assay in all cases: SelectScreen ZLYTE
Format in all cases: biochemical
EPHA2 = biological target: T1, EPHA2 (Homo sapiens, UniProt P29317); conditions: ATP Km, read-out: Percentage of inhibition
T1 construct: purchased Life Technologies
How it was run: (§1)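 Percent inhibition values come from a one-concentration (1 μM) profiling run covering a wide set of kinases.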

MELK = MELK (Homo sapiens, UniProt Q14680); conditions: ATP Km, read-out: Percentage of inhibition
How it was run: as §1

CSNK1G3 (CK1 gamma 3) = biological target: T2, CSNK1G3 (CK1 gamma 3) (Homo sapiens, UniProt Q9Y6M4); conditions: ATP Km, read-out: Percentage of inhibition
T2 construct: purchased Life Technologies
How it was run: as §1

EPHB1 = biological target: T3, EPHB1 (Homo sapiens, UniProt P54762); conditions: ATP Km, read-out: Percentage of inhibition
T3 construct: purchased Life Technologies (SelectScreen Whole Panel)
How it was run: as §1

MAP2K1 (MEK1) = biological target: T4, MAP2K1 (MEK1) (Homo sapiens, UniProt Q02750); conditions: ATP 100 µM, read-out: Percentage of inhibition
T4 construct: purchased Life Technologies (SelectScreen Whole Panel)
How it was run: as §1

ABL1 Y253F = biological target: T5, ABL1 Y253F (Homo sapiens, UniProt P00519, Y253F); conditions: ATP Km, read-out: Percentage of inhibition
T5 construct: purchased Life Technologies (SelectScreen Whole Panel)
How it was run: as §1

NTRK1 (TRKA) = NTRK1 (TRKA) (Homo sapiens, UniProt P04629); conditions: ATP Km, read-out: Percentage of inhibition
How it was run: as §1

ROCK2 = biological target: T6, ROCK2 (Homo sapiens, UniProt O75116); conditions: ATP Km, read-out: Percentage of inhibition
T6 construct: purchased Life Technologies
How it was run: as §1

PLK2 = biological target: T7, PLK2 (Homo sapiens, UniProt Q9NYY3); conditions: ATP Km, read-out: Percentage of inhibition
T7 construct: purchased Life Technologies (SelectScreen service)
How it was run: as §1

EPHB3 = biological target: T8, EPHB3 (Homo sapiens, UniProt P54753); conditions: ATP Km, read-out: Percentage of inhibition
T8 construct: purchased Life Technologies (SelectScreen Whole Panel)
How it was run: as §1

CSF1R (FMS) = CSF1R (FMS) (Homo sapiens, UniProt P07333); conditions: ATP Km, read-out: Percentage of inhibition
How it was run: as §1

RPS6KA6 (RSK4) = biological target: T9, RPS6KA6 (RSK4) (Homo sapiens, UniProt Q9UK32); conditions: ATP Km, read-out: Percentage of inhibition
T9 construct: purchased Life Technologies
How it was run: as §1

BRSK1 (SAD1) = biological target: T10, BRSK1 (SAD1) (Homo sapiens, UniProt Q8TDC3); conditions: ATP Km, read-out: Percentage of inhibition
T10 construct: purchased Life Technologies (SelectScreen Whole Panel service)
How it was run: as §1

STK25 (YSK1) = biological target: T11, STK25 (YSK1) (Homo sapiens, UniProt O00506); conditions: ATP Km, read-out: Percentage of inhibition
T11 construct: purchased Life Technologies (SelectScreen Whole Panel service)
How it was run: as §1

FES (FPS) = biological target: T12, FES (FPS) (Homo sapiens, UniProt P07332); conditions: ATP Km, read-out: Percentage of inhibition
T12 construct: purchased Life Technologies (SelectScreen service)
How it was run: as §1

INSRR (IRR) = biological target: T13, INSRR (IRR) (Homo sapiens, UniProt P14616); conditions: ATP Km, read-out: Percentage of inhibition
T13 construct: purchased Life Technologies (SelectScreen Whole Panel)
How it was run: as §1

EGFR (ErbB1) = biological target: T14, EGFR (ErbB1) (Homo sapiens, UniProt P00533); conditions: ATP Km, read-out: Percentage of inhibition
T14 construct: purchased Life Technologies
How it was run: as §1

INSR = INSR (Homo sapiens, UniProt P06213); conditions: ATP Km, read-out: Percentage of inhibition
How it was run: as §1

GRK7 = biological target: T15, GRK7 (Homo sapiens, UniProt Q8WTQ7); conditions: ATP Km, read-out: Percentage of inhibition
T15 construct: purchased Life Technologies (SelectScreen service)
How it was run: as §1

DYRK3 = biological target: T16, DYRK3 (Homo sapiens, UniProt O43781); conditions: ATP Km, read-out: Percentage of inhibition
T16 construct: purchased Life Technologies (SelectScreen service)
How it was run: as §1

ABL1 F317L = biological target: T17, ABL1 F317L (Homo sapiens, UniProt P00519, F317L); conditions: ATP Km, read-out: Percentage of inhibition
T17 construct: purchased Life Technologies (SelectScreen)
How it was run: as §1

RPS6KA3 (RSK2) = biological target: T18, RPS6KA3 (RSK2) (Homo sapiens, UniProt P51812); conditions: ATP Km, read-out: Percentage of inhibition
T18 construct: purchased Life Technologies (SelectScreen service)
How it was run: as §1

PTK2 (FAK) = biological target: T19, PTK2 (FAK) (Homo sapiens, UniProt Q05397); conditions: ATP Km, read-out: Percentage of inhibition
T19 construct: purchased Life Technologies (SelectScreen service)
How it was run: as §1

CSNK1G2 (CK1 gamma 2) = biological target: T20, CSNK1G2 (CK1 gamma 2) (Homo sapiens, UniProt P78368); conditions: ATP Km, read-out: Percentage of inhibition
T20 construct: purchased Life Technologies
How it was run: as §1

ABL1 E255K = biological target: T21, ABL1 E255K (Homo sapiens, UniProt P00519, E255K); conditions: ATP Km, read-out: Percentage of inhibition
T21 construct: purchased Life Technologies
How it was run: as §1

ITK = biological target: T22, ITK (Homo sapiens, UniProt Q08881); conditions: ATP Km, read-out: Percentage of inhibition
T22 construct: purchased Life Technologies (SelectScreen Whole Panel)
How it was run: as §1

MET (cMet) Y1235D = biological target: T23, MET (cMet) Y1235D (Homo sapiens, UniProt P08581, Y1235D); conditions: ATP Km, read-out: Percentage of inhibition
T23 construct: purchased Life Technologies
How it was run: as §1

NIM1K = biological target: T24, NIM1K (Homo sapiens, UniProt Q8IY84); conditions: ATP Km, read-out: Percentage of inhibition
T24 construct: purchased Life Technologies (SelectScreen)
How it was run: as §1

AMPK (A2/B2/G3) = AMPK (A2/B2/G3) (Homo sapiens, UniProt P54646); conditions: ATP Km, read-out: Percentage of inhibition
How it was run: as §1

JAK3 = biological target: T25, JAK3 (Homo sapiens, UniProt P52333); conditions: ATP Km, read-out: Percentage of inhibition
T25 construct: purchased Life Technologies (SelectScreen service)
How it was run: as §1

PDGFRA (PDGFR alpha) = biological target: T26, PDGFRA (PDGFR alpha) (Homo sapiens, UniProt P16234); conditions: ATP Km, read-out: Percentage of inhibition
T26 construct: purchased Life Technologies (SelectScreen Whole Panel service)
How it was run: as §1

TYK2 = biological target: T27, TYK2 (Homo sapiens, UniProt P29597); conditions: ATP Km, read-out: Percentage of inhibition
T27 construct: purchased Life Technologies (SelectScreen Whole Panel)
How it was run: as §1

SRC N1 = SRC N1 (Homo sapiens, UniProt P12931); conditions: ATP Km, read-out: Percentage of inhibition
How it was run: as §1

NEK6 = biological target: T28, NEK6 (Homo sapiens, UniProt Q9HC98); conditions: ATP Km, read-out: Percentage of inhibition
T28 construct: purchased Life Technologies (SelectScreen)
How it was run: as §1

FGFR3 K650E = biological target: T29, FGFR3 K650E (Homo sapiens, UniProt P22607, K650E); conditions: ATP Km, read-out: Percentage of inhibition
T29 construct: purchased Life Technologies (SelectScreen Whole Panel service)
How it was run: as §1

CSNK1G1 (CK1 gamma 1) = CSNK1G1 (CK1 gamma 1) (Homo sapiens, UniProt Q9HCP0); conditions: ATP Km, read-out: Percentage of inhibition
How it was run: as §1

CDK1/cyclin B = biological target: T30, CDK1/cyclin B (Homo sapiens, UniProt P06493); conditions: ATP Km, read-out: Percentage of inhibition
T30 construct: purchased Life Technologies
How it was run: as §1

MKNK1 (MNK1) = MKNK1 (MNK1) (Homo sapiens, UniProt Q9BUB5); conditions: ATP Km, read-out: Percentage of inhibition
How it was run: as §1

T10 sequence (Q8TDC3 whole entry): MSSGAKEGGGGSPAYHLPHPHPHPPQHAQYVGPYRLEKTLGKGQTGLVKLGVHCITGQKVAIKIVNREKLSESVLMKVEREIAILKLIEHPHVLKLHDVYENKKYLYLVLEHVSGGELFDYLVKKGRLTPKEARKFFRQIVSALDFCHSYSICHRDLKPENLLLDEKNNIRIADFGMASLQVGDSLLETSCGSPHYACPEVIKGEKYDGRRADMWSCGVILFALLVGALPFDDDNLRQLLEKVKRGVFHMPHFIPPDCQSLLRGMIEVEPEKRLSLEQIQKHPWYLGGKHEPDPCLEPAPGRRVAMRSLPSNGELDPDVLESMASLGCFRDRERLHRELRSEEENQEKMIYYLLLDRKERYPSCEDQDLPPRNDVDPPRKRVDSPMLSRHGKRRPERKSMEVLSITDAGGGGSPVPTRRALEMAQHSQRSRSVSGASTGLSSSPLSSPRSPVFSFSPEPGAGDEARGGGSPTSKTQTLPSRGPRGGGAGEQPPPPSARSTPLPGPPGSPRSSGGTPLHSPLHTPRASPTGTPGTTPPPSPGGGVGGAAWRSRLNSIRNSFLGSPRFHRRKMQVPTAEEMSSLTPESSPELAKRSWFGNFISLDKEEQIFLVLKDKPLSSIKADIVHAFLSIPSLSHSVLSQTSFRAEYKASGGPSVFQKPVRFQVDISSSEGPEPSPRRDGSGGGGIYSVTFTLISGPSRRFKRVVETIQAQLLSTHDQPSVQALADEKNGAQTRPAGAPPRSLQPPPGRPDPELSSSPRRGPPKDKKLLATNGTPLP
T6 sequence (O75116 whole entry): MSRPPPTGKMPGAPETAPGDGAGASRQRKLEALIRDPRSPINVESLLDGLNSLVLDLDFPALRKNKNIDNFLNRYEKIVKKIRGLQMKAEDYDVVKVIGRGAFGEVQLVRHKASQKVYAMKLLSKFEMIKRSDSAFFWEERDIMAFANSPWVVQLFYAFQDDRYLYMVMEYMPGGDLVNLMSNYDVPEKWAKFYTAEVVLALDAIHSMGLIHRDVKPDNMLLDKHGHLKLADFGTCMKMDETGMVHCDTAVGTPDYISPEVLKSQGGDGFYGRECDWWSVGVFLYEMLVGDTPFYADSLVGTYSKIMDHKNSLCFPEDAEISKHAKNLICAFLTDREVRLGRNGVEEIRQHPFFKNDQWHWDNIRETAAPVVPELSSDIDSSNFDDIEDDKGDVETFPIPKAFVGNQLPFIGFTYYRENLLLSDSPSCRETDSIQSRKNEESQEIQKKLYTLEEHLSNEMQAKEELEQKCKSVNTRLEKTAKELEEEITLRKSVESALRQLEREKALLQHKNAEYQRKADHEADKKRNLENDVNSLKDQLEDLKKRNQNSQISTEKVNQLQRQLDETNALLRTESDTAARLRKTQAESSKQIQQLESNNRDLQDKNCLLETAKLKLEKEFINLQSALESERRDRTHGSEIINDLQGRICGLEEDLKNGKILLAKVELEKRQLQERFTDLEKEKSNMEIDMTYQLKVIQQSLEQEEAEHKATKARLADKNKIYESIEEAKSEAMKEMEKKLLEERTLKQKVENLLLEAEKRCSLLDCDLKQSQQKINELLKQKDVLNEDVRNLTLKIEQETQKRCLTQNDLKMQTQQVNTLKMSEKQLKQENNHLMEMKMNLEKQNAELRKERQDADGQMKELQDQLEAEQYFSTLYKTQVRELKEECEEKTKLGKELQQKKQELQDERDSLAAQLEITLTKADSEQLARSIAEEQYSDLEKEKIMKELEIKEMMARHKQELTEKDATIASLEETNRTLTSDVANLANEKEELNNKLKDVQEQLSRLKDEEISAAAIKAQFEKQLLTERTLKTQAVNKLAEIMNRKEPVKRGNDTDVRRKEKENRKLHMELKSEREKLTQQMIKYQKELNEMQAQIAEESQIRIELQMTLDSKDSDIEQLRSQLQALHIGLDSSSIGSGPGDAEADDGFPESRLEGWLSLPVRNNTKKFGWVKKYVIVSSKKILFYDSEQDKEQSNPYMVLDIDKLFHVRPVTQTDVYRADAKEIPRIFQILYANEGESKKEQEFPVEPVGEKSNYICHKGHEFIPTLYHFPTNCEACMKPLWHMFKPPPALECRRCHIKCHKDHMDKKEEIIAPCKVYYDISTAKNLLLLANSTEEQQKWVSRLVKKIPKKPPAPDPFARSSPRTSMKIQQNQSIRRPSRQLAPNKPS
Chain of CSNK1G1 (CK1 gamma 1) (Q9HCP0 whole entry): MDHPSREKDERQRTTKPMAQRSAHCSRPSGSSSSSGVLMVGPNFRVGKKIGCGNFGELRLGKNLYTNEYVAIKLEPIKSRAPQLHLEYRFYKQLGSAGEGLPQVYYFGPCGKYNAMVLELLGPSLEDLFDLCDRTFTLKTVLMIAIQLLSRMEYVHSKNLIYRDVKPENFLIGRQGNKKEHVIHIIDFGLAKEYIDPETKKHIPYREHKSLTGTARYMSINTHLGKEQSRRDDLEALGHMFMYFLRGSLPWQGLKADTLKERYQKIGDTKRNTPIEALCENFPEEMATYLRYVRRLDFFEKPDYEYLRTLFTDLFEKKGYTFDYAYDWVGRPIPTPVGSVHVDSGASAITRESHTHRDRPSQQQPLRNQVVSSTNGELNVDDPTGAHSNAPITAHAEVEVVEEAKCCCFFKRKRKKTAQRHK
T30 sequence (P06493 whole entry): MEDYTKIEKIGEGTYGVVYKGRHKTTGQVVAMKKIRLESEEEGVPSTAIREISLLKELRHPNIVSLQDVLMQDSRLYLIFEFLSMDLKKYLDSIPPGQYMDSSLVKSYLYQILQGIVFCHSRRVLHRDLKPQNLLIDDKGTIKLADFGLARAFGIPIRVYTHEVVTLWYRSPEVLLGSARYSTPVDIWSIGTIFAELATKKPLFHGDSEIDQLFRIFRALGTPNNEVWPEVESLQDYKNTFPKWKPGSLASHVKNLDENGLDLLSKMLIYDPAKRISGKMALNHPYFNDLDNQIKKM
T30 sequence (P14635 whole entry partner): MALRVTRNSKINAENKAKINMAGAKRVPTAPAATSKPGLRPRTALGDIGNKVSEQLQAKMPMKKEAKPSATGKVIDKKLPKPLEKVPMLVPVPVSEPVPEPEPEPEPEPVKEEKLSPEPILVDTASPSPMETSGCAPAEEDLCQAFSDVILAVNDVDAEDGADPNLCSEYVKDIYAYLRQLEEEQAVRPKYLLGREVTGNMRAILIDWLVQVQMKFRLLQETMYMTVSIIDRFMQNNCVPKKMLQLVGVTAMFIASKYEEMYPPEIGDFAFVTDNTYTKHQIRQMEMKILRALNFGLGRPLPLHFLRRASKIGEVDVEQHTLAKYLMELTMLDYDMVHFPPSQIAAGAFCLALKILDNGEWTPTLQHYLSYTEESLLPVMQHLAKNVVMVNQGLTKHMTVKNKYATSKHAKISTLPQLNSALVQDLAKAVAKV
Chain of NTRK1 (TRKA) (P04629 33-796): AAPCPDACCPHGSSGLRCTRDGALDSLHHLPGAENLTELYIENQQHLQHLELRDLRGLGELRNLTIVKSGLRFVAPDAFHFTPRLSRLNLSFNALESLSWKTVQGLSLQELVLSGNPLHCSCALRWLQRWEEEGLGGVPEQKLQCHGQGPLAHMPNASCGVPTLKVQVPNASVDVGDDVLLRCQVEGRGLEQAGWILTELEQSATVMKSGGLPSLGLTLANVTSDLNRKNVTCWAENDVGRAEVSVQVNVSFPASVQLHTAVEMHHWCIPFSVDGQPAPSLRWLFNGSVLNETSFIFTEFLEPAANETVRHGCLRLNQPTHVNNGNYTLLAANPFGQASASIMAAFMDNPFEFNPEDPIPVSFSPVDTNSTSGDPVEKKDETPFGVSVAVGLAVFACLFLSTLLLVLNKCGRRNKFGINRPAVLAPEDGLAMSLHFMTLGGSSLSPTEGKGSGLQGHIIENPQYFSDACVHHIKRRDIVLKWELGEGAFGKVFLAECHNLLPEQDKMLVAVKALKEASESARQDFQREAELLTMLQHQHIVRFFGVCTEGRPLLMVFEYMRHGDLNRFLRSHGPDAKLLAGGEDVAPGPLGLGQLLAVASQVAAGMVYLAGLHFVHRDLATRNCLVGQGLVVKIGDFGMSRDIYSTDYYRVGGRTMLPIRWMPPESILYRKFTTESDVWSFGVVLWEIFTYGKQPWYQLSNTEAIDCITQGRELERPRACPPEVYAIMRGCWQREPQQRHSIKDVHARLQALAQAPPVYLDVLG
T3 sequence (P54762 18-984): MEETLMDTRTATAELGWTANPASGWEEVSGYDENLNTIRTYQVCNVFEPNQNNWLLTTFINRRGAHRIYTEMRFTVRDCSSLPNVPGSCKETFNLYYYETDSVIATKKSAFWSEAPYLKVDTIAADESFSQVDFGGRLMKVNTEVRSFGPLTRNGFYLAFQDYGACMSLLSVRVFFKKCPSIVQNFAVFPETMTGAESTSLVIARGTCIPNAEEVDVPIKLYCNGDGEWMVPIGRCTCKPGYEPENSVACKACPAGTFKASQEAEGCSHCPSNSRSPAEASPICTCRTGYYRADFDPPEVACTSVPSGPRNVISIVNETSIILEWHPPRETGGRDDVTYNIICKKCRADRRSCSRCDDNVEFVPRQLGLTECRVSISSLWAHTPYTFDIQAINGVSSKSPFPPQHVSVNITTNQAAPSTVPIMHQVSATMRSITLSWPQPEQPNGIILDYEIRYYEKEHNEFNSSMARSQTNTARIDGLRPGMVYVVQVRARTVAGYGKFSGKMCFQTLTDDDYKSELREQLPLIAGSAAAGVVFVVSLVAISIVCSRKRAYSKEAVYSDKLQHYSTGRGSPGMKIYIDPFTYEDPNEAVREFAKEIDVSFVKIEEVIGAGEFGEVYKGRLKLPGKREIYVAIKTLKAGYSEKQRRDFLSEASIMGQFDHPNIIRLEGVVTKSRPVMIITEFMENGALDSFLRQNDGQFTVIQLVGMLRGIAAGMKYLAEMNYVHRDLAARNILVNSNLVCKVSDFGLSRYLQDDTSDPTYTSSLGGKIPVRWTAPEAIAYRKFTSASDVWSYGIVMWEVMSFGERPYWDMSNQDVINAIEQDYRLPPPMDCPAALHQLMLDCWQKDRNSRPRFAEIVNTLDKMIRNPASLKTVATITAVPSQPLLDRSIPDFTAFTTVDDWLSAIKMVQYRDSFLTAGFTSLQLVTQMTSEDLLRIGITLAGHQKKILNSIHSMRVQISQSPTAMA

COc1ccc2[nH]c3c(=O)[nH]c4ccc(O)cc4c3c2c1 [Compound 55, 2-Hydroxy-10-methoxy-5,7-dihydro-6H-indolo[2,3-c]quinolin-6-one]
inhibition at 1 µM (EPHA2): 40%
inhibition at 1 µM (MELK): 57%
inhibition at 1 µM (CSNK1G3 (CK1 gamma 3)): 28%
inhibition at 1 µM (EPHB1): 49%
inhibition at 1 µM (MAP2K1 (MEK1)): 98%
inhibition at 1 µM (ABL1 Y253F): 55%
inhibition at 1 µM (NTRK1 (TRKA)): 69%
inhibition at 1 µM (ROCK2): 4%
inhibition at 1 µM (PLK2): 74%
inhibition at 1 µM (EPHB3): -9%
inhibition at 1 µM (CSF1R (FMS)): 63%
inhibition at 1 µM (RPS6KA6 (RSK4)): 93%
inhibition at 1 µM (BRSK1 (SAD1)): 45%
inhibition at 1 µM (STK25 (YSK1)): 19%
inhibition at 1 µM (FES (FPS)): 25%
inhibition at 1 µM (INSRR (IRR)): 52%
inhibition at 1 µM (EGFR (ErbB1)): 4%
inhibition at 1 µM (INSR): 21%
inhibition at 1 µM (GRK7): 74%
inhibition at 1 µM (DYRK3): 86%
inhibition at 1 µM (ABL1 F317L): 9%
inhibition at 1 µM (RPS6KA3 (RSK2)): 83%
inhibition at 1 µM (PTK2 (FAK)): 25%
inhibition at 1 µM (CSNK1G2 (CK1 gamma 2)): 33%
inhibition at 1 µM (ABL1 E255K): 39%
inhibition at 1 µM (ITK): 49%
inhibition at 1 µM (MET (cMet) Y1235D): 2%
inhibition at 1 µM (NIM1K): 9%
inhibition at 1 µM (AMPK (A2/B2/G3)): 57%
inhibition at 1 µM (JAK3): 79%
inhibition at 1 µM (PDGFRA (PDGFR alpha)): 43%
inhibition at 1 µM (TYK2): 51%
inhibition at 1 µM (SRC N1): 59%
inhibition at 1 µM (NEK6): 8%
inhibition at 1 µM (FGFR3 K650E): 43%
inhibition at 1 µM (CSNK1G1 (CK1 gamma 1)): 20%
inhibition at 1 µM (CDK1/cyclin B): 35%
inhibition at 1 µM (MKNK1 (MNK1)): 7%
